# Data: patent US4283420A, “Pharmaceutically active cyclohexyl compounds and their preparation” (Labaz, priority 1978, dated 1981)
# Where two headings read alike, the source gives them in different places.
# Experiments:
# mouse = test: Ouabain seizure; type: in vivo; conditions: po, 0.25 h, read-out: Ouabain seizure, ED50
# Procedure: Ouabain was administered intra-ventricularly at a dose of 5 γ/mouse in a volume of 0.02 ml.
# male OFl mice = test: Pentetrazole seizure (mortality after i.p. pentetrazole 125 mg/kg); type: in vivo; conditions: for ED50: Mus musculus, po, 0.25 h; for Pentetrazole seizure, % protection: 15 minutes
# Procedure: This test was carried out on batches of 10 male OFl mice which had fasted since the day before and were placed in individual cages, in accordance with the method of Cheymol (J.) Acta. Pharmacol., (1950), 2, 1-55.
# The treatments were carried out perorally 15 minutes before intraperitoneal (i.p.) injection of a solution of pentetrazole (125 mg/kg).
# The mortality is recorded 3 hours after this injection.
# It is to be noted that the 50% effective doses (ED50), where these have been determined, were calculated by the method of MOOD (J. Am. Statist. Assoc., (1965), 60, 967-78).
# male mice = test: Sedative activity: Rotarod test; type: in vivo; conditions: peroral, mice
# Procedure: (§1) This test is used for the purpose of assessing the ability of the animals to coordinate their movements. It uses a wooden cylinder which has a diameter of 4.8 cm and revolves at a speed of 4 revolutions/minute. The test is carried out on male mice weighing about 22 g. The products are administered perorally (p.o.) to batches of 10 animals per dose. The animals are placed on the apparatus 15 minutes after administration of the product. The percentage of mice which lose their equilibrium reflex, that is to say which become incapable of retaining their balance on the cylinder for a period of 2 minutes, is noted.
# (§2) Using the regression straight line method, a 50% neurotoxic dose (NTD 50) is calculated, which thus expresses the average level of the first neuromuscular effects under the influence of the studied product.
# male Swiss mice = test: Maximum electrical seizure; type: in vivo; conditions: for Maximum electrical seizure, % protection: peroral, 15 minutes; for ED50: Mus musculus, po, 0.25 h, read-out: Maximum electrical seizure, ED50
# Text: Maximum electrical seizure
# The technique used is that recommended by GOODMAN (L. S.), SING-GREWALD (M.), BROWN (V. C.) and […] (E. A.), Am.
# The animals tested are male Swiss mice grouped into batches of 10. The normal threshold of the electric shock which is capable of causing tonic extension of the front paws is first determined for each animal.
# Acute toxicity, peroral = conditions: mouse, in vivo, po
# Procedure: In order to locate the boundary separating the pharmacological effects from the toxicity of the products, a very approximate assessment of the toxicity was carried out on mice (batches of 10 animals) after peroral treatment.
# [1] = Sedative activity: Rotarod test; type: in vivo, mice (male); conditions: mouse, in vivo, po
# Procedure: as §1, §2
# mice [2] = test: Anoxia as a result of confinement; type: in vivo; conditions: Mus musculus, ip, read-out: Anoxia as a result of confinement, % increase in the survival time
# Procedure: Anoxia as a result of confinement
# Mice (in batches of 20) are placed in a 200 cm^3 hermetically sealed chamber (a wide-mouthed glass vessel) which is under normal pressure and has a normal content of atmospheric oxygen. All of the treatments are administered intraperitoneally immediately before introduction into the chamber. The animal is considered to be dead at the moment when breathing stops.
# Since the wide-mouthed vessels chosen are very small, the motor activity of the animals is extremely low and this eliminates, in principle, the possibility of a positive result due to a sedative effect.
# Therefore, the percentage increase in the survival time of the treated animals is noted, relative to the batch.
# mice [3] = test: β-Mercaptopropionic acid seizure; type: in vivo; conditions: for ED50: Mus musculus, po, 0.25 h, read-out: β-Mercaptopropionic acid seizure, ED50; for β-Mercaptopropionic acid seizure, % protection: at 400 mg/kg, peroral, 15 minutes
# Procedure: β-Mercaptopropionic acid seizure
# β-Mercaptopropionic acid is an inhibitor of glutamatedecarboxylase (GAD), which is an enzyme which catalyses the conversion of glutamate to γ-aminobutyric acid (GABA). Its action thus manifests itself in a lowering of the GABA level and the occurrence of general tonico-clonic seizures 3 to 4 minutes after it has been administered. β-Mercaptopropionic acid was administered to mice intraperitoneally at a dose of 40 mg/kg.
# [4] = ouabain 5 γ/mouse intra-ventricularly, measured 15 minutes after peroral treatment
# [5] = Table IV, mice, measured 15 minutes after peroral treatment, read-out: Pentetrazole seizure, ED50
# [6] = read-out: Pentetrazole seizure, ED50
# [7] = peroral, 15 minutes after administration, male mice, read-out: Sedative activity, Rotarod test, ED50
# [8] = β-mercaptopropionic acid 40 mg/kg i.p., mice, 15 minutes after peroral treatment
# [9] = read-out: DE 50, Pentetrazole crisis test
# [10] = at 50 mg/kg, intraperitoneal, mice
# [11] = mice, measured 15 minutes after peroral treatment
# [12] = Table III, mice, peroral, 15 minutes after administration, read-out: DE 50, Pentetrazole crisis test
smiles,measurement,setting,value
COCC1(C(=O)O)CCCCC1 [Example 55],ED50,mouse; [4],950 mg/kg
same,ED50,male OFl mice; [5],190 mg/kg
same,"Rotarod test, % of failures",male mice; at 600 mg/kg,0%
same,"Maximum electrical seizure, % protection","male Swiss mice; at 190 mg/kg, mice",0%
CC1(C(=O)[O-])CCCCC1.[Na+],ED50,mouse; Mus musculus,600 mg/kg
same,mortality,"Acute toxicity, peroral; at 1882 mg/kg, peroral, mice",50%
same,ED50,male OFl mice; [6],317 mg/kg
same,TD50 at 0.25 h,[1]; [7],1020 mg/kg
same,ILS at 160 mg/kg,mice [2],29%
same,ED50,male Swiss mice,563 mg/kg
same,ED50,mice [3],118 mg/kg
"CC(C)(C)C1(C(N)=O)CCCCC1 [Example 42, 1-tert-butyl-1-cyclohexyl-carboxamide]",ED50,male OFl mice; [5],79 mg/kg
same,ED50,mice [3]; [8],95 mg/kg
"CCCC(CCC)C(=O)[O-].[Na+] [Depakene, sodium dipropyl-acetate, reference compound]",ED50,male OFl mice; [9],142 mg/kg
C=CCC1(C(N)=O)CCCCC1 [Example 27],ED50,mouse; [4],66 mg/kg
same,mortality,"Acute toxicity, peroral; 500 mg/kg",100%
same,ED50,male OFl mice; [5],20 mg/kg
same,TD50 at 0.25 h,[1],75 mg/kg
same,ILS at 50 mg/kg,mice [2]; [10],0%
same,ED50,male Swiss mice; [11],55 mg/kg
same,ED50,mice [3]; [8],38 mg/kg
C#CC1(C(=O)O)CCCCC1 [Example 17],ED50,mouse; [4],933 mg/kg
same,"Pentetrazole seizure, % protection","male OFl mice; at 170 mg/kg, peroral, mice",30%
same,"Rotarod test, % of failures",male mice; at 500 mg/kg,0%
same,ILS at 210 mg/kg,"mice [2]; at 210 mg/kg, intraperitoneal, mice",23%
same,"Maximum electrical seizure, % protection","male Swiss mice; at 170 mg/kg, mice",13%
NC(=O)C1(Cc2ccccc2)CCCCC1 [Example 32],ED50,mouse; [4],200 mg/kg
same,ED50,male OFl mice; [5],32 mg/kg
same,TD50 at 0.25 h,[1],125 mg/kg
same,ILS at 50 mg/kg,mice [2]; [10],0%
same,ED50,male Swiss mice; [11],115 mg/kg
same,ED50,mice [3]; [8],200 mg/kg
"NC(=O)C1(CCOc2ccccc2)CCCCC1 [Example 54, 1-(2-phenoxyethyl)-1-cyclohexyl-carboxamide]",ED50,male OFl mice; [5],198 mg/kg
same,TD50 at 0.25 h,[1],160 mg/kg
same,ED50,mice [3]; [8],86 mg/kg
CC(C)C1(C(=O)O)CCCCC1 [Example 16],ED50,male OFl mice; [12],110 mg/kg
"O=C(O)C1(CC#CBr)CCCCC1 [Example 35, 1-(3-bromo-2-propynyl)-1-cyclohexyl-carboxylic acid]",mortality,"Acute toxicity, peroral; at 735 mg/kg, peroral, mice",0%
same,ED50,male OFl mice; [5],335 mg/kg
same,TD50 at 0.25 h,[1],245 mg/kg
same,"Maximum electrical seizure, % protection","male Swiss mice; at 735 mg/kg, mice",20%
same,"β-Mercaptopropionic acid seizure, % protection",mice [3]; mice,30%
C=C(Cl)CC1(C(=O)O)CCCCC1 [Example 19],ED50,mouse; [4],579 mg/kg
same,mortality,"Acute toxicity, peroral; 1100 mg/kg",10%
same,ED50,male OFl mice; [5],94 mg/kg
same,"Rotarod test, % of failures",male mice; at 700 mg/kg,30%
same,ILS at 240 mg/kg,"mice [2]; at 240 mg/kg, intraperitoneal, mice",45%
same,ED50,male Swiss mice; [11],366 mg/kg
same,ED50,mice [3]; [8],300 mg/kg
C=C(Cl)C1(C(=O)O)CCCCC1 [Example 18],ED50,mouse; [4],851 mg/kg
same,"Pentetrazole seizure, % protection","male OFl mice; at 200 mg/kg, peroral, mice",40%
same,"Rotarod test, % of failures",male mice; at 600 mg/kg,0%
same,ILS at 260 mg/kg,"mice [2]; at 260 mg/kg, intraperitoneal, mice",40%
O=C([O-])C1(CC(Br)=CBr)CCCCC1.[Na+],ED50,mouse; Mus musculus,> 900 mg/kg
same,mortality,"Acute toxicity, peroral; at 600 mg/kg, peroral, mice",0%
same,ED50,male OFl mice; [6],240 mg/kg
same,TD50 at 0.25 h,[1]; [7],280 mg/kg
same,ILS at 190 mg/kg,mice [2],50%
same,"Maximum electrical seizure, % protection","male Swiss mice; at 600 mg/kg, mice",60%
same,ED50,mice [3],340 mg/kg
"CC(=O)CC1(C(=O)[O-])CCCCC1.[Na+] [Example 46, Sodium 1-acetonyl-1-cyclohexyl-carboxylate]",ED50,mouse; [4],> 900 mg/kg
same,ED50,male OFl mice; [6],300 mg/kg
same,"Rotarod test, % of failures",male mice; at 600 mg/kg,0%
same,ED50,mice [3]; [8],270 mg/kg
CC1(C(N)=O)CCCCC1 [Example 28],mortality,"Acute toxicity, peroral; 752 mg/kg",50%
same,ED50,male OFl mice; [5],178 mg/kg
same,TD50 at 0.25 h,[1],425 mg/kg
same,ILS at 70 mg/kg,"mice [2]; at 70 mg/kg, intraperitoneal, mice",30%
same,ED50,male Swiss mice; [11],311 mg/kg
same,ED50,mice [3]; [8],100 mg/kg
"CC(C)(Cl)C1(C(N)=O)CCCCC1 [Example 39, 1-(1-chloro-1-methylethyl)-1-cyclohexyl-carboxamide]",ED50,male OFl mice; [5],66 mg/kg
same,ED50,mice [3]; [8],63 mg/kg
"C=C(Cl)CC1(C(N)=O)CCCCC1 [Example 24, 1-(2'-chloro-2'-propenyl)-1-cyclohexyl-carboxamide]",ED50,mouse; [4],96 mg/kg
same,mortality,"Acute toxicity, peroral; 500 mg/kg",20%
same,ED50,male OFl mice; [5],57 mg/kg
same,TD50 at 0.25 h,[1],125 mg/kg
same,ILS at 50 mg/kg,mice [2]; [10],0%
same,ED50,male Swiss mice; [11],101 mg/kg
same,ED50,mice [3]; [8],64 mg/kg
C#CCC1(C(N)=O)CCCCC1 [Example 30],ED50,mouse; [4],170 mg/kg
same,mortality,"Acute toxicity, peroral; at 500 mg/kg, peroral, mice",20%
same,ED50,male OFl mice; [6],65 mg/kg
same,TD50 at 0.25 h,[1]; [7],125 mg/kg
same,ED50,male Swiss mice; [11],91 mg/kg
"C=CCC1(C(=O)[O-])CCCCC1.[Na+] [Example 22, Sodium 1-allyl-1-cyclohexyl-carboxylate]",ED50,mouse; [4],638 mg/kg
same,ED50,male OFl mice; [6],154 mg/kg
same,"Rotarod test, % of failures",male mice; at 600 mg/kg,20%
same,ILS at 240 mg/kg,mice [2],59%
same,"Maximum electrical seizure, % protection","male Swiss mice; at 200 mg/kg, mice",80%
"C=CC1(C(=O)[O-])CCCCC1.[Na+] [Example 37, Sodium 1-vinyl-1-cyclohexyl-carboxylate]",ED50,male OFl mice; [6],95 mg/kg
NC(=O)C1(CBr)CCCCC1 [Example 26],mortality,"Acute toxicity, peroral; at 500 mg/kg, peroral, mice",0%
same,ED50,male OFl mice; [6],75 mg/kg
same,TD50 at 0.25 h,[1]; [7],125 mg/kg
same,ILS at 50 mg/kg,mice [2],6%
same,ED50,mice [3]; [8],46 mg/kg
CC(C)C1(C(N)=O)CCCCC1 [Example 29],ED50,mouse; [4],31 mg/kg
same,mortality,"Acute toxicity, peroral; 500 mg/kg",100%
same,ED50,male OFl mice; [5],15 mg/kg
same,TD50 at 0.25 h,[1],35 mg/kg
same,ILS at 25 mg/kg,"mice [2]; at 25 mg/kg, intraperitoneal, mice",16%
same,ED50,male Swiss mice; [11],70 mg/kg
same,ED50,mice [3]; [8],12 mg/kg
"O=C(CBr)CC1(C(=O)O)CCCCC1 [Example 47, 1-bromoacetonyl-1-cyclohexyl-carboxylic acid]",mortality,"Acute toxicity, peroral; at 790 mg/kg, peroral, mice",30%
same,"Pentetrazole seizure, % protection","male OFl mice; at 395 mg/kg, peroral, mice",0%
same,ILS at 130 mg/kg,"mice [2]; at 130 mg/kg, intraperitoneal, mice",24%
same,"β-Mercaptopropionic acid seizure, % protection",mice [3]; mice,30%
O=C([O-])C1(Cc2ccccc2)CCCCC1.[Na+],ED50,mouse; Mus musculus,638 mg/kg
same,mortality,"Acute toxicity, peroral; 1000 mg/kg, at 1,000 mg/kg, peroral, mice",20%
same,ED50,male OFl mice; [6],116 mg/kg
same,TD50 at 0.25 h,[1]; [7],650 mg/kg
same,ILS at 170 mg/kg,mice [2],44%
same,ED50,male Swiss mice,431 mg/kg
same,ED50,mice [3],257 mg/kg
COCC1(C(N)=O)CCCCC1 [Example 31],ED50,mouse; [4],250 mg/kg
same,mortality,"Acute toxicity, peroral; 500 mg/kg",0%
same,ED50,male OFl mice; [5],195 mg/kg
same,TD50 at 0.25 h,[1],300 mg/kg
same,ED50,male Swiss mice; [11],200 mg/kg
CCC1(C(=O)O)CCCCC1 [Example 15],ED50,male OFl mice; [12],120 mg/kg
"CC(C)(C)C1(C(=O)[O-])CCCCC1.[Na+] [Example 41, Sodium 1-tert-butyl-1-cyclohexyl-carboxylate]",ED50,male OFl mice; [9],131 mg/kg
